We go through 19 compounds from US10219516B2, “Molecules having pesticidal utility, and intermediates, compositions, and processes, related thereto” (priority 2015, dated 2019).

Read-outs that look alike come from different tables or passages of the source.

What all share (format): in vivo
Test [1] deals with Cabbage Looper (Trichoplusia ni, TRIPNI). In words: Bioassay on Cabbage Looper (CL), 128-well diet tray assay. Particulars: Trichoplusia ni. The gist of the method:
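Test molecule is dissolved in 90:10 acetone-water and applied at 50 μg/cm^2 onto artificial diet, then dried. One to five second-instar larvae go into each of eight wells. Trays, sealed but vented, stay at 25° C., 14:10 light-dark, five to seven days, after which mortality is averaged.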

Test [2] has as its system Yellow Fever Mosquito (Aedes aegypti, AEDSAE). Put plainly: Bioassay on Yellow Fever Mosquito (YFM), 96-well plate larval assay. Particulars: for YFM rating: Yellow Fever Mosquito, 96-well plate larval assay; for YFM (Biological Results, rating): Species YFM (Yellow Fever Mosquito). The method, boiled down:
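Each well was scored for mortality after 3 days at room temperature under a non-evaporative lid. Test molecules came from DMSO masters (4000 ppm stock) diluted with water/acetone 90:10 and dispensed into six replicate plates, which were then infested with roughly 1-day-old larvae in liver-powder water.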

For test [3], the system named is Beet Armyworm (Spodoptera exigua, LAPHEG). In words: Bioassay on Beet Armyworm (BAW), 128-well diet tray assay. The gist of the method: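 Test molecule dissolved in acetone-water 90:10 is applied at 50 μg/cm^2 onto artificial diet and allowed to dry. Second instar larvae, one to five per well, are then added, and trays are vented and kept at 25° C. for five to seven days before mortality is scored.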

[4] abbreviates: Cabbage Looper, 128-well diet tray assay, read-out: CL rating.
Where [5] appears, read: Beet Armyworm, 128-well diet tray assay, read-out: BAW rating.
Setting [6] is: Species CL (Cabbage Looper), read-out: CL (Biological Results, rating).
Where [7] appears, read: Species BAW (Beet Armyworm), read-out: BAW (Biological Results, rating).

As for `O=C(Nc1ccc([S+]([O-])CC(F)(F)F)cc1)c1cc(NC(=O)[C@H]2[C@H](c3cc(Cl)cc(Cl)c3)C2(Cl)Cl)ccc1Cl` (relative stereo) [PF18, trans-2-Chloro-5-(2,2-dichloro-3-(3,5-dichlorophenyl)cyclopropane-1-carboxamido)-N-(4-((2,2,2-trifluoroethyl)sulfinyl)phenyl)benzamide], the pest or weed control at 50 µg/cm2 in test [1] (setting [4]) and in test [3] (setting [5]) was 50 to 100% each time. In test [2], the YFM rating entry is “B (More than 0-Less than 80)”.

In the case of `CC(C)(C)c1cc2cc(NC(=O)c3cc(NC(=O)[C@H]4[C@H](c5cc(Cl)cc(Cl)c5)C4(Cl)Cl)ccc3Cl)ccc2[nH]1` (relative stereo) [F486, N-(2-(tert-Butyl)-1H-indol-5-yl)-2-chloro-5-(trans)-(2,2-dichloro-3-(3,5-dichlorophenyl)cyclopropane-1-carboxamido)benzamide], the pest or weed control at 50 µg/cm2 in test [1] (setting [4]) and in test [3] (setting [5]) was 50 to 100% throughout. Further, the YFM rating entry in test [2] is “A (80-100)”.

For the compound `O=C(Nc1ccc2cc[nH]c2n1)c1cc(NC(=O)C2C(c3cc(Cl)cc(Cl)c3)C2(Cl)Cl)ccc1Cl` (stereo not drawn) [F178, 2-Chloro-5-(trans)-2,2-dichloro-3-(3,5-dichlorophenyl)cyclopropane-1-carboxamido)-N-(1H-pyrrolo[2,3-b]pyridin-6-yl)benzamide], the pest or weed control at 50 µg/cm2 in test [1] (setting [6]) and in test [3] (setting [7]) was 50 to 100% each time. In test [2], the “YFM (Biological Results, rating)” value is on record as “B (More than 0-Less than 80)”.

`O=C(Nc1ccc(-n2cccn2)cc1)c1cc(NC(=O)[C@H]2[C@H](c3cc(Cl)cc(Cl)c3)C2(Cl)Cl)ccc1Cl` (relative stereo) [F440, trans-N-(4-(1H-Pyrazol-1-yl)phenyl)-2-chloro-5-(2,2-dichloro-3-(3,5-dichlorophenyl)cyclopropanecarboxamido)benzamide]: the pest or weed control at 50 µg/cm2 in test [1] (setting [4]) and in test [3] (setting [5]) was 50 to 100% each time. The YFM rating entry in test [2] was “A (80-100)”.

On to `C=C(F)c1cc([C@H]2[C@H](C(=O)Nc3ccc(Cl)c(C(=O)Nc4ccc(F)cc4F)c3)C2(Cl)Cl)ccc1Cl` (relative stereo) [F385, 2-Chloro-5-(trans-2,2-dichloro-3-(4-chloro-3-(1-fluorovinyl)phenyl)cyclopropane-1-carboxamido)-N-(2,4-difluorophenyl)benzamide], for which the pest or weed control at 50 µg/cm2 in test [1] (setting [4]) and in test [3] (setting [5]) was 50 to 100% throughout. Also, in test [2], the YFM rating entry was “A (80-100)”.

As to `Cc1cc(NC(=O)c2cc(NC(=O)[C@H]3[C@H](c4cc(Cl)cc(Cl)c4)C3(Cl)Cl)ccc2Cl)ccc1Cl` (relative stereo) [PF113, trans-2-Chloro-N-(4-chloro-3-methylphenyl)-5-(2,2-dichloro-3-(3,5-dichlorophenyl)cyclopropane-1-carboxamido)benzamide], the pest or weed control at 50 µg/cm2 in test [1] (setting [4]) and in test [3] (setting [5]) was 50 to 100% throughout. Further, in test [2], the YFM rating result is listed as “A (80-100)”.

Consider `C#Cc1ccc([C@H]2[C@H](C(=O)Nc3ccc(Cl)c(C(=O)Nc4ccc(F)cc4C#N)c3)C2(Cl)Cl)cc1Cl` (relative stereo) [F401, 2-chloro-N-(2-cyano-4-fluorophenyl)-5-(trans-2,2-dichloro-3-(3-chloro-4-ethynylphenyl)cyclopropane-1-carboxamido)benzamide], for which the pest or weed control at 50 µg/cm2 in test [1] (setting [4]) and in test [3] (setting [5]) was 50 to 100% each time. The YFM rating entry in test [2] is on record as “A (80-100)”.

Consider `Nc1c(F)ccc(NC(=O)c2cc(NC(=O)[C@H]3[C@H](c4cc(Cl)c(Cl)c(Cl)c4)C3(Cl)Cl)ccc2Cl)c1F` [F315, N-(3-Amino-2,4-difluorophenyl)-2-chloro-5-((1R,3R)-2,2-dichloro-3-(3,4,5-trichlorophenyl)cyclopropane-1-carboxamido)benzamide], for which the pest or weed control at 50 µg/cm2 in test [1] (setting [6]) and in test [3] (setting [7]) was 50 to 100% in each case. The “YFM (Biological Results, rating)” value in test [2] was “A (80-100)”.

For the compound `O=C(Nc1ccc(Br)c(F)c1)c1cc(NC(=O)C2C(c3cc(Cl)cc(Cl)c3)C2(Cl)Cl)ccc1Cl` (stereo not drawn) [PF115, N-(4-Bromo-3-fluorophenyl)-2-chloro-5-(trans)-2,2-dichloro-3-(3,5-dichlorophenyl)cyclopropane-1-carboxamido)benzamide], the pest or weed control at 50 µg/cm2 in test [1] (setting [4]) and in test [3] (setting [5]) was 50 to 100% in each case. Also, in test [2], the YFM rating result was “A (80-100)”.

In the case of `Cn1nc(NC(=O)c2cc(NC(=O)[C@H]3[C@H](c4cc(Cl)cc(Cl)c4)C3(Cl)Cl)ccc2Cl)c2cc(C(F)(F)F)ccc21` (relative stereo) [F460, 2-Chloro-5-(trans)-(2,2-dichloro-3-(3,5-dichlorophenyl)cyclopropane-1-carboxamido)-N-(1-methyl-5-(trifluoromethyl)-1H-indazol-3-yl)benzamide], the pest or weed control at 50 µg/cm2 in test [1] (setting [4]) and in test [3] (setting [5]) was 50 to 100% each time. Also, in test [2], the YFM rating result is on record as “A (80-100)”.

Regarding `Cc1cc(NC(=O)OC(C)(C)C)ccc1NC(=O)c1cccc(NC(=O)[C@H]2[C@H](c3cc(Cl)cc(Cl)c3)C2(Cl)Cl)c1` (relative stereo) [F263, trans-tert-Butyl (4-(3-(2,2-dichloro-3-(3,5-dichlorophenyl)cyclopropane-1-carboxamido)benzamido)-3-methylphenyl)carbamate], the pest or weed control at 50 µg/cm2 in test [1] (setting [6]) and in test [3] (setting [7]) was 50 to 100% throughout. For the same compound, the “YFM (Biological Results, rating)” value in test [2] is “B (More than 0-Less than 80)”.

Regarding `Nc1ccc(NC(=O)c2cc(NC(=O)[C@H]3[C@H](c4cc(Cl)cc(Cl)c4)C3(Cl)Cl)ccc2Cl)cc1F` (relative stereo) [F174, trans-N-(4-Amino-3-fluorophenyl)-2-chloro-5-(2,2-dichloro-3-(3,5-dichlorophenyl)cyclopropane-1-carboxamido)benzamide], the pest or weed control at 50 µg/cm2 in test [1] (setting [6]) and in test [3] (setting [7]) was 50 to 100% each time. Besides, the “YFM (Biological Results, rating)” value in test [2] is “A (80-100)”.

With `COc1cc([C@H]2[C@H](C(=O)Nc3ccc(Cl)c(C(=O)Nc4ccc(F)cc4)c3)C2(Cl)Cl)cc(F)c1Br` (relative stereo) [F539, 5-(trans-3-(4-Bromo-3-fluoro-5-methoxyphenyl)-2,2-dichlorocyclopropane-1-carboxamido)-2-chloro-N-(4-fluorophenyl)benzamide], the pest or weed control at 50 µg/cm2 in test [1] (setting [4]) and in test [3] (setting [5]) was 50 to 100% each time. Further, in test [2], the YFM rating entry is recorded as “A (80-100)”.

Consider `CCn1ccc2cc(NC(=O)c3cc(NC(=O)[C@H]4[C@H](c5cc(Cl)cc(Cl)c5)C4(Cl)Cl)ccc3Cl)ccc21` (relative stereo) [F488, 2-Chloro-5-(trans)-(2,2-dichloro-3-(3,5-dichlorophenyl)cyclopropane-1-carboxamido)-N-(1-ethyl-1H-indol-5-yl)benzamide], for which the pest or weed control at 50 µg/cm2 in test [1] (setting [4]) and in test [3] (setting [5]) was 50 to 100% each time. Further, the YFM rating entry in test [2] is recorded as “A (80-100)”.

On to `CN(C(=O)c1cc(NC(=O)C2C(c3cc(Cl)cc(Cl)c3)C2(Cl)Br)ccc1Cl)c1ccc(F)cc1` (stereo not drawn) [F167, 5-(trans)-2-Bromo-2-chloro-3-(3,5-dichlorophenyl)cyclopropanecarboxamido)-2-chloro-N-(4-fluorophenyl)-N-methylbenzamide], for which the pest or weed control at 50 µg/cm2 in test [1] (setting [6]) and in test [3] (setting [7]) was 50 to 100% throughout. For the same compound, the “YFM (Biological Results, rating)” value in test [2] is on record as “B (More than 0-Less than 80)”.

`COc1ccc(NC(=O)c2cc(NC(=O)[C@H]3[C@H](c4cc(Cl)cc(Cl)c4)C3(Cl)Cl)ccc2Cl)cn1` (relative stereo) [F550, 2-Chloro-5-(trans-2,2-dichloro-3-(3,5-dichlorophenyl)cyclopropane-1-carboxamido)-N-(6-methoxypyridin-3-yl)benzamide]: the pest or weed control at 50 µg/cm2 in test [1] (setting [4]) and in test [3] (setting [5]) was 50 to 100% throughout. Further, the YFM rating entry in test [2] is “A (80-100)”.

As to `O=C(Nc1ccc(F)cc1)c1cc(NC(=O)[C@H]2[C@H](c3cc(Cl)cc(Cl)c3)C2(Cl)Cl)ccc1OC(F)(F)F` (relative stereo) [F135, trans-5-(2,2-Dichloro-3-(3,5-dichlorophenyl)cyclopropane-1-carboxamido)-N-(4-fluorophenyl)-2-(trifluoromethoxy)benzamide], the pest or weed control at 50 µg/cm2 in test [1] (setting [6]) and in test [3] (setting [7]) was 50 to 100% each time. The “YFM (Biological Results, rating)” value in test [2] is recorded as “A (80-100)”.

For the compound `C=Cc1cc(NC(=O)c2cc(NC(=O)[C@H]3[C@H](c4cc(Cl)cc(Cl)c4)C3(Cl)Cl)ccc2Cl)cnc1F` (relative stereo) [F399, 2-Chloro-5-(trans-2,2-dichloro-3-(3,5-dichlorophenyl)cyclopropane-1-carboxamido)-N-(6-fluoro-5-vinylpyridin-3-yl)benzamide], the pest or weed control at 50 µg/cm2 in test [1] (setting [4]) and in test [3] (setting [5]) was 50 to 100% in each case. Also, the YFM rating result in test [2] was “A (80-100)”.

Consider `Nc1ccc(F)c(NC(=O)c2cc(NC(=O)[C@H]3[C@H](c4ccc(Cl)c(Cl)c4)C3(Cl)Cl)ccc2Cl)c1` [F428, N-(5-Amino-2-fluorophenyl)-2-chloro-5-((1R,3R)-2,2-dichloro-3-(3,4-dichlorophenyl)cyclopropane-1-carboxamido)benzamide], for which the pest or weed control at 50 µg/cm2 in test [1] (setting [4]) and in test [3] (setting [5]) was 50 to 100% each time. In addition, in test [2], the YFM rating entry is “A (80-100)”.
